# Values quoted from earlier work in patent publication US20050065088A1, “Pharmaceutical compositions and methods comprising combinations of 2-alkylidene-19-nor-vitamin D derivatives and parathyroid hormone” (Pfizer Inc., priority 2003, published 2005).
# Experiments:
# HL-60 cells = settings: result in words
# [1] = system: intestinal calcium transport; settings: chronic dosing 7 days, 130 or 260 pmol dose (1,25-(OH)2D3 only 260 pmol/day)
# [2] = system: serum calcium (bone calcium mobilization); settings: for selectivity bone calcium mobilization versus intestinal calcium transport, in words / bone calcium mobilization, result in words: chronic dosing 7 days; for bone calcium mobilization, result in words: 130 and 260 pmol/day
SMILES,inducing differentiation of HL-60 cells to the monocyte (HL-60 cells),"intestinal calcium transport, result in words [1]","activity on bone calcium mobilization (serum calcium) relative to the native hormone ([2]; 130 pmol/day, 7 days, 'at least 10 and possible 100-1,000 times')","selectivity bone calcium mobilization versus intestinal calcium transport, in words [2]","bone calcium mobilization, result in words [2]","bone calcium mobilization activity relative to 1,25-(OH)2D3 ([2]; chronic dosing, 7 days, 'likely to be')"
"C=C1[C@H](O)CC(=C/C=C2\CCC[C@]3(C)[C@@H]([C@@H](C)CCCC(C)(C)O)CC[C@@H]23)C[C@H]1O [2-Methylene-19-Nor-20S-1,25-(OH)2D3, (20S)-1α,25-dihydroxy-2-methylene-19-nor-vitamin D3]",extremely potent,no significant change,at least 10 times,selective for the mobilization of calcium from bone,most potent compound tested,
"C=C1/C(=C\C=C2/CCC[C@]3(C)[C@@H]([C@H](C)CCCC(C)(C)O)CC[C@@H]23)C[C@@H](O)C[C@@H]1O [1,25-(OH)2D3, 1,25-dihydroxyvitamin D3, reference compound]",,expected elevation,,,,
"C=C1[C@H](O)CC(=C/C=C2\CCC[C@]3(C)[C@@H]([C@H](C)CCCC(C)(C)O)CC[C@@H]23)C[C@H]1O [2-Methylene-19-Nor-1,25-(OH)2D3, 1α,25-dihydroxy-2-methylene-19-nor-vitamin D3]","activity similar to 1,25-(OH)2D3",no intestinal calcium transport activity,,selective for the mobilization of calcium from bone,extremely strong bone calcium mobilization,10-100 times
